Data taken from patent US20250057979A1, “CARDIAC CALCIUM HANDLING MACHINERY REMODELED IN FRIEDREICH'S ATAXIA” (University of South Florida, priority 2023, published 2025).

Experiments:
[1] = tested on: left ventricular myocytes from FXN-WT and FXN-KO; conditions: 10 μM FCCP added after 15 min of time-dependent recording over 22 min; FXN-WT and FXN-KO cardiomyocytes
Procedure: The mitochondrial membrane potential (ΔΨm) was measured using tetramethyl rhodamine methyl ester (TMRM) dye. Left ventricular myocytes from the FXN-WT and FXN-KO were plated in an eight-well confocal chamber (LAB-TEK, DK, Denmark; Catalog #155409,) for 20 minutes, and cells were incubated with TMRM (10 nmol/L; Invitrogen; Catalog #T668) for 20 minutes in Tyrode solution at 37° C. and washed two times with Tyrode solution. After incubation with the dye, live cells were imaged for 20 min in 2 min intervals on a confocal microscope (Olympus-IX) using a 63X-oil objective. […] Confocal settings were identical for FXN-WT and the FXN-KO myocytes.

[2] = tested on: ventricular myocytes from FXN-KO and FXN-WT mice; assay: Oxygen consumption rate (OCR), XFp24 Cell Mito Stress Test (Agilent Seahorse); type: cell-based, mouse; conditions: isolated ventricular myocytes
Procedure: To investigate how mitochondrial respiration was affected in FA, OCR was measured herein using XFp24 Cell Mito Stress Test (Catalog #B05423; Agilent Seahorse). One day prior to the experiment, XFp24 cell culture plates were coated with gelatin/fibronectin at 37° C. Ventricular myocytes were enzymatically isolated from FXN-KO and FXN-WT mice. We dissociated myocytes in DMEM medium (Seahorse Bioscience), supplemented with 1 mM pyruvate, 2 mM glutamine, and 10 mM D-glucose. We plated 2500 myocytes/well into 24 well seahorse plates for 10 min. OCR were measured using the Seahorse Bioscience XF24 Extracellular Flux Analyzer (Seahorse Bioscience). Measurements were taken as the cells were incubated sequentially under four conditions: 1) basal levels were measured with no additives; 2) oligomycin (1.5 μM) was added to inhibit ATP synthase and OXPHOS, showing glycolysis alone reversibly; 3) FCCP (1 μM), a mitochondrial uncoupler, was added to induce maximal respiration; and 4) Antimycin A (10 μM), a Complex III inhibitor, was added to obtain non-mitochondrial oxygen consumption background. The Seahorse software was used to extract the results and plotted them using GraphPad Prism. OCR was normalized to cell number per well.

## N#CC(C#N)=NNc1ccc(OC(F)(F)F)cc1 [FCCP, carbonyl cyanide 4-(trifluoromethoxy) phenylhydrazone]
[1]
  ΔΨm (TMRM fluorescence) after addition of FCCP: decreased
[2]; FCCP 1 μM
  OCR after injection of FCCP: increased OCR to maximal levels

## CC[C@H]1/C=C/C=C/C[C@@H](C)[C@H](O)[C@@](C)(O)C(=O)[C@@H](C)[C@H](O)[C@@H](C)C(=O)[C@@H](C)[C@H](O)[C@@H](C)/C=C/C(=O)O[C@@H]2[C@H](C)[C@H](CC1)O[C@]1(CC[C@H](C)[C@H](C[C@@H](C)O)O1)[C@H]2C [Oligomycin, oligomycin]
[2]; oligomycin 1.5 μM
  OCR after injection of oligomycin: decreased

## Antimycin A
[2]; Antimycin A 10 μM
  OCR after injection of antimycin A: reduced
